Read-outs that look alike come from different tables or passages of the source.
Tests used:
Assay in all cases: TGFα-shedding assay-based GPCR screening with chimeric Gα subunit proteins
Type in all cases: cell-based
348 GPCRs [1] = target: 348 GPCRs (Homo sapiens, UniProt P41143); conditions: read-out: % GPCR activation compared to TPA, OPRD1 (opioid receptor, delta 1 (DOR)); 10µM, Favipiravir 100μM
348 GPCRs [2] = target: T1, 348 GPCRs (Homo sapiens, UniProt P47893); conditions: 10µM, Favipiravir 100μM
T1 construct: expressed in transfected cells; host or cells: HEK293A
T1 sequence (P47893 1-321): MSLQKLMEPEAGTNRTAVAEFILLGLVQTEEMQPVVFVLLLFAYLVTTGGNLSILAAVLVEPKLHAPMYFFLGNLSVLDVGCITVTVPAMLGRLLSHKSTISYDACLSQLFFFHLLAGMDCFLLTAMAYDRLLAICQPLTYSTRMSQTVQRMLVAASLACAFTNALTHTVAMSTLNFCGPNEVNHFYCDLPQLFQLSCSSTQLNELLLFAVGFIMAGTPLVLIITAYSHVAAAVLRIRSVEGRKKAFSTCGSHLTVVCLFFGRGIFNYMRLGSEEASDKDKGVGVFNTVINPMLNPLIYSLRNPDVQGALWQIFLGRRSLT

348 GPCRs [3] = target: T2, 348 GPCRs (Homo sapiens, UniProt Q9NZD1); conditions: 10µM, Favipiravir 100μM
T2 construct: expressed in transfected cells; host or cells: HEK293A
T2 sequence (Q9NZD1 whole entry): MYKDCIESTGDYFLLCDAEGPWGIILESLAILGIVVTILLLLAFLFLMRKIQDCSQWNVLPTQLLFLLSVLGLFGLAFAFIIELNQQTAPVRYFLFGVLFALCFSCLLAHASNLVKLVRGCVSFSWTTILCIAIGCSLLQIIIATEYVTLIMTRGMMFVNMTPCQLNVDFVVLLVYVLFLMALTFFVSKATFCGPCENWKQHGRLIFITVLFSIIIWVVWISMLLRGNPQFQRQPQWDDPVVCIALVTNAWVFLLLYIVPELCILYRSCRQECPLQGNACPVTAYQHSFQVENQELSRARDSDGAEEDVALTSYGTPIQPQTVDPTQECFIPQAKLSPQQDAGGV

348 GPCRs [4] = target: T3, 348 GPCRs (Homo sapiens, UniProt O00222); conditions: 10µM, Favipiravir 100μM
T3 construct: expressed in transfected cells; host or cells: HEK293A
T3 sequence (O00222 34-908): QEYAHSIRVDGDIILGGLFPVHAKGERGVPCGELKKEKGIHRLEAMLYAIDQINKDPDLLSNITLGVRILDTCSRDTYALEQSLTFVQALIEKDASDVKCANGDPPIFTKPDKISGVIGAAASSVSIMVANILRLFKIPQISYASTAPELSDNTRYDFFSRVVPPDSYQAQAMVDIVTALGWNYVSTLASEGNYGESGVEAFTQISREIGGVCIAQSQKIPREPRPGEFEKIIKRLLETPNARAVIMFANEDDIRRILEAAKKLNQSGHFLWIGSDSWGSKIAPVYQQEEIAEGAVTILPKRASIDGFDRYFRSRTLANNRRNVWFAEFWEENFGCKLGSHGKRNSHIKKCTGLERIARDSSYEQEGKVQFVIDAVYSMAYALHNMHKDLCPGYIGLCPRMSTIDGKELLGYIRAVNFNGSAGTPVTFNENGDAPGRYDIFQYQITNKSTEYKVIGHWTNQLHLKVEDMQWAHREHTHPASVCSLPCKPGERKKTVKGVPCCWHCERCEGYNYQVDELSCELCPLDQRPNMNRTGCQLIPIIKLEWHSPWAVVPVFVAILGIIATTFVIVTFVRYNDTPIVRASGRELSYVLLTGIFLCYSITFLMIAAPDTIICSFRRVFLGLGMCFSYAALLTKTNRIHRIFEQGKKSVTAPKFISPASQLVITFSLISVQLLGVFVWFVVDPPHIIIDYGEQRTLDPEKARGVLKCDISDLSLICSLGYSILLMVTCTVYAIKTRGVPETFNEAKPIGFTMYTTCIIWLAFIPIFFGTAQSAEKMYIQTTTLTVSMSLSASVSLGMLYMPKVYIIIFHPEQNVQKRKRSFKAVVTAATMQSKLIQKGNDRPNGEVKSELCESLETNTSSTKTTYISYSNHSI

348 GPCRs [5] = target: T4, 348 GPCRs (Homo sapiens, UniProt P35348); conditions: 10µM
T4 construct: expressed in transfected cells; host or cells: HEK293A
T4 sequence (P35348 1-466): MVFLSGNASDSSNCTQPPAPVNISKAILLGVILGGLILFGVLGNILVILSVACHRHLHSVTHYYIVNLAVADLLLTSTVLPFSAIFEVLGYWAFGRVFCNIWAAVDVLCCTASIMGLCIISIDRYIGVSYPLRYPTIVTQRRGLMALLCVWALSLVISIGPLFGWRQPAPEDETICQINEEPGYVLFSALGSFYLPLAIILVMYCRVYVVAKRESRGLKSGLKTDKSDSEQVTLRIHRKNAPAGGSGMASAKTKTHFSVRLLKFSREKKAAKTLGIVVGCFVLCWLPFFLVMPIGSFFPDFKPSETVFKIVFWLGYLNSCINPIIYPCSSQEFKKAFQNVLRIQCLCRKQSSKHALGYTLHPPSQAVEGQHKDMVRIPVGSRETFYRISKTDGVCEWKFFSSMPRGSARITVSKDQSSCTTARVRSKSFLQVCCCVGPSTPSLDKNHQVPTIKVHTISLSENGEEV

348 GPCRs [6] = target: T5, 348 GPCRs (Homo sapiens, UniProt Q13639); conditions: 10µM, Favipiravir 100μM
T5 construct: expressed in transfected cells; host or cells: HEK293A
T5 sequence (Q13639 whole entry): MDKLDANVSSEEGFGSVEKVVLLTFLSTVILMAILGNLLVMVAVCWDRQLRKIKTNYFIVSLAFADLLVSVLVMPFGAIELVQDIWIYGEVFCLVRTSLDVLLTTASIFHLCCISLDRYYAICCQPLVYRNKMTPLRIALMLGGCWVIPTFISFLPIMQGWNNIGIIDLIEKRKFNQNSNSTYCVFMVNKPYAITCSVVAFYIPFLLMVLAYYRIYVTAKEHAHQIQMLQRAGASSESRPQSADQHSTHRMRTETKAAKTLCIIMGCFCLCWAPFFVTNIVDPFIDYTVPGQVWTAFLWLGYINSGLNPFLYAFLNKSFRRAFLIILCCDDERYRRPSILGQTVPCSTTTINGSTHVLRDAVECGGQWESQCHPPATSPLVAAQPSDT

348 GPCRs [7] = target: T6, 348 GPCRs (Homo sapiens, UniProt P34969); conditions: 10µM, Favipiravir 100μM
T6 construct: expressed in transfected cells; host or cells: HEK293A
T6 sequence (P34969 whole entry): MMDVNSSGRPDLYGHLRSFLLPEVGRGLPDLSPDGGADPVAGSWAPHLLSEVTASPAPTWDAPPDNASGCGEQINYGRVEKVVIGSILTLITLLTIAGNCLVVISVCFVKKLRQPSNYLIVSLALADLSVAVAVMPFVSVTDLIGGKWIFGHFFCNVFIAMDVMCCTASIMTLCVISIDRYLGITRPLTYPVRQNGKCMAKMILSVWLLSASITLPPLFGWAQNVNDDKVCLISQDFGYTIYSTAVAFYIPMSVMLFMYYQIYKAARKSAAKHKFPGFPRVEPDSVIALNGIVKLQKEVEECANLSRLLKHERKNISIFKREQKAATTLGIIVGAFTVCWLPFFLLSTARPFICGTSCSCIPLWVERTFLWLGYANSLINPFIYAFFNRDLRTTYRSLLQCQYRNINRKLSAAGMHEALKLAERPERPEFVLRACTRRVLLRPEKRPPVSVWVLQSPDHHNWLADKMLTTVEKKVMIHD

348 GPCRs [8] = target: T7, 348 GPCRs (Homo sapiens, UniProt P43657); conditions: 10µM, Favipiravir 100μM
T7 construct: expressed in transfected cells; host or cells: HEK293A
T7 sequence (P43657 1-344): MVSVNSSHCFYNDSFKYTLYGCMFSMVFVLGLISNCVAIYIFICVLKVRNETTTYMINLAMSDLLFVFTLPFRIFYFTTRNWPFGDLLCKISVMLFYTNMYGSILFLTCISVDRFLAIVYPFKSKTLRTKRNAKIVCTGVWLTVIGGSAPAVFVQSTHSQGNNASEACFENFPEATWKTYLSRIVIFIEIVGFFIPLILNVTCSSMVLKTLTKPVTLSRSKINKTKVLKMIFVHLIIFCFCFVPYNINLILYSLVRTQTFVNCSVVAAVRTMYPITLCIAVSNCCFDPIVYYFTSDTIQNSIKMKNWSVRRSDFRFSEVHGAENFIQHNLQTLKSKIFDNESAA

348 GPCRs [9] = target: T8, 348 GPCRs (Homo sapiens, UniProt Q8TDU9); conditions: RXFP4 (relaxin/insulin-like family peptide receptor 4); 10µM, Favipiravir 100μM
T8 construct: expressed in transfected cells; host or cells: HEK293A
T8 sequence (Q8TDU9 whole entry): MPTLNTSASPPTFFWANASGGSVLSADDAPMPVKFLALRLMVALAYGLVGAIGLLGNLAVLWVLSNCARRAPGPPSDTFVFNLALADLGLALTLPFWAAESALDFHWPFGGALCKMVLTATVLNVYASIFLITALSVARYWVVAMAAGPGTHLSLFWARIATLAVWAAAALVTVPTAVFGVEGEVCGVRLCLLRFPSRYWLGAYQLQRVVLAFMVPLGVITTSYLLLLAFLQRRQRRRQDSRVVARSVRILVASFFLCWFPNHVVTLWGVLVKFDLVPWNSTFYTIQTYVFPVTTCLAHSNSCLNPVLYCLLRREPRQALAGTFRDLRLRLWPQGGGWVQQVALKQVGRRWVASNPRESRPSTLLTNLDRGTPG

348 GPCRs [10] = target: T9, 348 GPCRs (Homo sapiens, UniProt P32302); conditions: 10µM
T9 construct: expressed in transfected cells; host or cells: HEK293A
T9 sequence (P32302 1-372): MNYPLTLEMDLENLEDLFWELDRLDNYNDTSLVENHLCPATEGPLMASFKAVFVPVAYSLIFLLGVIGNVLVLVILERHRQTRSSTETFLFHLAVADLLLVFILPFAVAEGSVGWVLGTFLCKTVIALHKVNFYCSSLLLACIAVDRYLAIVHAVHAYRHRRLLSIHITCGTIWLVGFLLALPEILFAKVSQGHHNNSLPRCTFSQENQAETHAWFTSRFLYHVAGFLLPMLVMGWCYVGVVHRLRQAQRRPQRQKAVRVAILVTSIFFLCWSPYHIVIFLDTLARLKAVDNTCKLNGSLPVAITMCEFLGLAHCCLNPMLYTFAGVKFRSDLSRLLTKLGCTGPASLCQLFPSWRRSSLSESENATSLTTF

348 GPCRs [11] = target: T10, 348 GPCRs (Homo sapiens, UniProt Q96AM1); conditions: 10µM, Favipiravir 100μM
T10 construct: expressed in transfected cells; host or cells: HEK293A
T10 sequence (Q96AM1 whole entry): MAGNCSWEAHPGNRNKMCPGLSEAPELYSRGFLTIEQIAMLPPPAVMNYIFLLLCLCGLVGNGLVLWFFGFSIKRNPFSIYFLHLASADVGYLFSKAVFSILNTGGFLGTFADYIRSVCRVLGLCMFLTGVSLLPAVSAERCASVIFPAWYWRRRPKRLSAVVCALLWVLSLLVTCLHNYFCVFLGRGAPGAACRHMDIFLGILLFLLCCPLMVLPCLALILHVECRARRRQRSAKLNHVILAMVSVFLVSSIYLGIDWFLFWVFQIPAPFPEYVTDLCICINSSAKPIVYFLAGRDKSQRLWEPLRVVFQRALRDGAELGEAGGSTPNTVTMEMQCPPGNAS

348 GPCRs [12] = target: T11, 348 GPCRs (Homo sapiens, UniProt O00574); conditions: 10µM
T11 construct: expressed in transfected cells; host or cells: HEK293A
T11 sequence (O00574 whole entry): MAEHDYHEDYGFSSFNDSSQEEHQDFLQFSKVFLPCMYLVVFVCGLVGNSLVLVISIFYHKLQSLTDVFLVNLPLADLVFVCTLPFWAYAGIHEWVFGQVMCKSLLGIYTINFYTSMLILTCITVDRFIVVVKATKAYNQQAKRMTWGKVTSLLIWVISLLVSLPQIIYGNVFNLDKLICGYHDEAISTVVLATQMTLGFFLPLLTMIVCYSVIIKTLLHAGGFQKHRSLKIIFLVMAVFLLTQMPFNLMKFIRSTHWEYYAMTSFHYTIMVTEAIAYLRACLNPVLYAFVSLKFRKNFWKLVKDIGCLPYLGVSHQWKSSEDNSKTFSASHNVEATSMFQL

348 GPCRs [13] = target: T12, 348 GPCRs (Homo sapiens, UniProt Q8NGU9); conditions: 10µM, Favipiravir 100μM
T12 construct: expressed in transfected cells; host or cells: HEK293A
T12 sequence (Q8NGU9 whole entry): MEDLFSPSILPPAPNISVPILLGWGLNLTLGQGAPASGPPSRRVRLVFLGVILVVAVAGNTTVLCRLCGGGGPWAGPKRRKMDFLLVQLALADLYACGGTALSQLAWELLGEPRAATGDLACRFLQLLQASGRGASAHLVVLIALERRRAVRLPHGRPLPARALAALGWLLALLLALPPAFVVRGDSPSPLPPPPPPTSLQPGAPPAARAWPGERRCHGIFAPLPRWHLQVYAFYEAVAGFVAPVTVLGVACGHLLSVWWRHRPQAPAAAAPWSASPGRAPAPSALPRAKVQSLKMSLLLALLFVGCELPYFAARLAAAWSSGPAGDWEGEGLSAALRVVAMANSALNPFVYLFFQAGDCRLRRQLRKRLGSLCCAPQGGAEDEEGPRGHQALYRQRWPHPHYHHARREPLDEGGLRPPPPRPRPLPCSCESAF

[14] = read-out: % GPCR activation compared to TPA, OR3A2 (olfactory receptor, family 3, subfamily A, member 2)
[15] = read-out: % GPCR activation compared to TPA, GPRC5D (G protein-coupled receptor class C group 5 member D)
[16] = read-out: % GPCR activation compared to TPA, GRM8 (glutamate receptor, metabotropic 8)
[17] = read-out: % GPCR activation compared to TPA, GPCR α1A (adrenoceptor alpha 1A)
[18] = read-out: % GPCR activation compared to TPA, HTR4 (5-hydroxytryptamine (serotonin) receptor 4)
[19] = read-out: % GPCR activation compared to TPA, 5-HT7 (5-hydroxytryptamine receptor 7)
[20] = read-out: % GPCR activation compared to TPA, LPAR6 (lysophosphatidic acid receptor 6)
[21] = read-out: % GPCR activation compared to TPA, GPCR CXCR5 (C-X-C motif chemokine receptor 5)
[22] = read-out: % GPCR activation compared to TPA, MRGF (MAS-related GPR, member F)
[23] = read-out: % GPCR activation compared to TPA, MRGPRF (MAS-related GPR, member F)
[24] = read-out: % GPCR activation compared to TPA, GPCR CXCR6 (C-X-C motif chemokine receptor 6)
[25] = read-out: % GPCR activation compared to TPA, GPR150 (G protein-coupled receptor 150)

Sequence of 348 GPCRs (Homo sapiens, UniProt P41143) (P41143 whole entry): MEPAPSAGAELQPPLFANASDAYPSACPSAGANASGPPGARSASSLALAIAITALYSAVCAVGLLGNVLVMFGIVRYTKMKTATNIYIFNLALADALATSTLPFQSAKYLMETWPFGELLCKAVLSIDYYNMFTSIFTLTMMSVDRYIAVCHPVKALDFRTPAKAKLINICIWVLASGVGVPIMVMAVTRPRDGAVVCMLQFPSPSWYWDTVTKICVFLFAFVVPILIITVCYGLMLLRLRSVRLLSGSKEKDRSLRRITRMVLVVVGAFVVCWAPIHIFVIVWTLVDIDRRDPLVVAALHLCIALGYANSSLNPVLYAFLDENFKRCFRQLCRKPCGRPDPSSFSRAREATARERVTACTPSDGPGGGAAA

SMILES | activation at 100 µM (348 GPCRs [1]) [%] | % GPCR activation compared to TPA (348 GPCRs [9]) [%] | activation at 10 µM (348 GPCRs [2]; [14]) [%] | activation at 10 µM (348 GPCRs [3]; [15]) [%] | activation at 10 µM (348 GPCRs [4]; [16]) [%] | activation at 10 µM (348 GPCRs [5]; [17]) [%] | activation at 100 µM (348 GPCRs [6]; [18]) [%] | activation at 100 µM (348 GPCRs [7]; [19]) [%] | activation at 10 µM (348 GPCRs [8]; [20]) [%] | activation at 10 µM (348 GPCRs [10]; [21]) [%] | activation at 100 µM (348 GPCRs [11]; [22]) [%] | activation at 100 µM (348 GPCRs [11]; [23]) [%] | activation at 10 µM (348 GPCRs [12]; [24]) [%] | activation at 100 µM (348 GPCRs [13]; [25]) [%] | further results
CC(C)C(=O)OC[C@H]1O[C@@H](n2ccc(NO)nc2=O)[C@H](O)[C@@H]1O [molnupiravir] | -1.93 | -0.4598 |  |  |  |  |  |  |  |  |  |  |  |  | activation at 10 µM (348 GPCRs [2]; OR3A2 (olfactory receptor, family 3, subfamily A, member 2), read-out: % GPCR activation compared to TPA): -0.408%; activation at 10 µM (348 GPCRs [3]; GPRC5D (G protein-coupled receptor class C group 5 member D), read-out: % GPCR activation compared to TPA): -0.168%; activation at 10 µM (348 GPCRs [4]; GRM8 (glutamate receptor, metabotropic 8), read-out: % GPCR activation compared to TPA): -2.47%; activation at 10 µM (348 GPCRs [5]; GPCR α1A (adrenoceptor alpha 1A), read-out: % GPCR activation compared to TPA): 0.335%; activation at 100 µM (348 GPCRs [6]; HTR4 (5-hydroxytryptamine (serotonin) receptor 4), read-out: % GPCR activation compared to TPA): -3.37%; activation at 100 µM (348 GPCRs [7]; 5-HT7 (5-hydroxytryptamine receptor 7), read-out: % GPCR activation compared to TPA): -0.625%; activation at 10 µM (348 GPCRs [8]; LPAR6 (lysophosphatidic acid receptor 6), read-out: % GPCR activation compared to TPA): -2.83%; activation at 10 µM (348 GPCRs [10]; GPCR CXCR5 (C-X-C motif chemokine receptor 5), read-out: % GPCR activation compared to TPA): -2%; activation at 100 µM (348 GPCRs [11]; MRGF (MAS-related GPR, member F), read-out: % GPCR activation compared to TPA): -3.54%; activation at 100 µM (348 GPCRs [11]; MRGPRF (MAS-related GPR, member F), read-out: % GPCR activation compared to TPA): -0.471%; activation at 10 µM (348 GPCRs [12]; GPCR CXCR6 (C-X-C motif chemokine receptor 6), read-out: % GPCR activation compared to TPA): 0.979%; activation at 100 µM (348 GPCRs [13]; GPR150 (G protein-coupled receptor 150), read-out: % GPCR activation compared to TPA): -6.13%
CCC(CC)COC(=O)[C@H](C)N[P@](=O)(OC[C@H]1O[C@@](C#N)(c2ccc3c(N)ncnn23)[C@H](O)[C@@H]1O)Oc1ccccc1 [remdesivir] | -3.05 | 0.9967 | -3.15 | -0.473 | -1.11 | 0.479 | -2.24 | 1.8 | -2.67 | -0.166 | 0.574 | -0.326 | 0.837 | 6.96 | 
CC(C)OC(=O)[C@H](C)N[P@](=O)(OC[C@H]1O[C@@H](n2ccc(=O)[nH]c2=O)[C@](C)(F)[C@@H]1O)Oc1ccccc1 [sofosbuvir] | -2.64 | -1.565 | -1.07 | 0.492 | -2.01 | 0.301 | -4.08 | -1.41 | 0.0867 | -0.968 | -2.71 | -0.0367 | -0.824 | 0.239 | 
